# Tests used:
# [1] = Serum chemistry and serum free thyroxine; type: in vivo, female Sprague–Dawley (SD) rats; conditions: rats exposed to PCB3 for 2 h
# [2] = Excretion in urine and feces over 24 h after inhalation of PCB3; type: in vivo, female Sprague–Dawley (SD) rats; conditions: 0–24 h; PCB3 35 μg/rat; n = 3
# [3] = test system: granulosa and theca cells derived from porcine ovary; conditions: cited from earlier work
# urinary 8-oxo-dG = assay: Urinary 8-oxo-dG analysis; type: in vivo, female Sprague–Dawley (SD) rats; conditions: exposed rats; composite 24 h urine; not significant vs control (p = 0.23)
# [4] = Serum concentration and clearance of PCB3 metabolites after inhalation; type: in vivo, female Sprague–Dawley (SD) rats; conditions: 0 h postexposure; PCB3 26 μg/rat; mean ± SD, n = 3
Compound,"Serum chemistry parameters (renal function, serum protein, T4, electrolyte balance, pancreas function, liver function, lipid metabolism) [1]","Unchanged PCB3 in feces, percentage of dose [2] [%]","Unchanged PCB3 in urine, percentage of dose [2] [%]",Estradiol level in the medium [3],8-oxo-dG level in 24 h urine (urinary 8-oxo-dG) [pg/mg creatinine],"Metabolite excreted in urine, percentage of dose [2] [%]",Serum concentration [4] [ng/mL]
"Clc1ccc(-c2ccccc2)cc1 [PCB3, 4-chlorobiphenyl]",within normal ranges,4 ± 2,2 ± 1,significant increase,160 ± 35,,
Oc1ccc(-c2ccc(Cl)cc2)cc1 [4′OH-PCB3],,,,,,1.0 ± 0.5,7 ± 1

# From PMC4137987 (Chemical Research in Toxicology, 2014)
